Laboratory results taken from patent publication US6737383B1, “Herbicidal oxadiazolidines” (priority 1999, dated 2004).

How the values were obtained:
bedstraw = test: Test B pre/postemergence bedstraw; type: in vivo, Galium aparine; conditions: Postemergence, Rate 250 g/ha; scale of 0 to 10, 0 is no effect, 10 is complete control
Summary of the method: (§1)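 Response is a visual 0-to-10 score relative to untreated plants, where 0 means no effect and 10 means complete control, taken twelve to sixteen days after application. Treatments went onto soil at planting and onto foliage of 1- to 4-leaf plants, using a surfactant-containing non-phytotoxic solvent.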

blackgrass = test: Test B pre/postemergence blackgrass; type: in vivo, Alopecurus myosuroides
Summary of the method: as §1

surinam grass = test: Test B pre/postemergence surinam grass; type: in vivo, Brachiaria decumbens
Summary of the method: as §1

cocklebur = test: Test B pre/postemergence cocklebur; type: in vivo, Xanthium strumarium
Summary of the method: as §1

corn = test: Test B pre/postemergence corn; type: in vivo, Zea mays
Summary of the method: as §1

crabgrass = test: Test B pre/postemergence crabgrass; type: in vivo, Digitaria sanguinalis
Summary of the method: as §1

giant foxtail = test: Test B pre/postemergence giant foxtail; type: in vivo, Setaria faberii
Summary of the method: as §1

morningglory = test: Test B pre/postemergence morningglory; type: in vivo, Ipomoea hederacea
Summary of the method: as §1

pigweed = test: Test B pre/postemergence pigweed; type: in vivo, Amaranthus retroflexus
Summary of the method: as §1

rape = test: Test B pre/postemergence rape; type: in vivo, Brassica napus
Summary of the method: as §1

soybean = test: Test B pre/postemergence soybean; type: in vivo, Glycine max
Summary of the method: as §1

sugar beet = test: Test B pre/postemergence sugar beet; type: in vivo, Beta vulgaris
Summary of the method: as §1

velvetleaf = test: Test B pre/postemergence velvetleaf; type: in vivo, Abutilon theophrasti
Summary of the method: as §1

wheat = test: Test B pre/postemergence wheat; type: in vivo, Triticum aestivum
Summary of the method: as §1

wild oat = test: Test B pre/postemergence wild oat; type: in vivo, Avena fatua
Summary of the method: as §1

purple nutsedge = test: Test B pre/postemergence purple nutsedge; type: in vivo, Cyperus rotundus
Summary of the method: as §1

rice = test: Test B flood test rice; type: in vivo, Oryza sativa
Summary of the method: (§2)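 Flood test on plants grown to the 2-leaf stage; treated plants kept in greenhouse twelve to sixteen days, then visually rated against controls on a 0 (no effect) to 10 (complete control) scale.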

smallflower flatsedge = test: Test B flood test smallflower flatsedge; type: in vivo, Cyperus difformis
Summary of the method: as §2

duck salad = test: Test B flood test duck salad; type: in vivo, Heteranthera limosa
Summary of the method: as §2

bamyardgrass = test: Test B flood test barnyardgrass; type: in vivo, Echinochloa crus-galli
Summary of the method: as §2

[1] = Postemergence, Rate 62 g/ha, scale 0 to 10, 0 is no effect, 10 is complete control
[2] = Postemergence, Rate 125 g/ha, scale of 0 to 10 where 0 is no effect and 10 is complete control
[3] = Postemergence, Rate 250 g/ha, scale of 0 to 10, 0 is no effect, 10 is complete control
[4] = Preemergence, Rate 62 g/ha, scale of 0 to 10 where 0 is no effect and 10 is complete control
[5] = Preemergence, Rate 125 g/ha, scale of 0 to 10 where 0 is no effect and 10 is complete control
[6] = Preemergence, Rate 250 g/ha, scale 0 to 10 (0 no effect, 10 complete control)
[7] = Preemergence, Rate 500 g/ha, scale of 0 to 10 where 0 is no effect and 10 is complete control
[8] = Rate 500 g/ha, Postemergence, scale 0 to 10, 0 is no effect, 10 is complete control
[9] = Rate 62 g/ha, flood test species, Pre-emergence, visual evaluation after twelve to sixteen days
[10] = Rate 125 g/ha, under heading Pre-emergence, flood test species, visual evaluation after twelve to sixteen days
[11] = Rate 250 g/ha, Pre-emergence (flood test species), scale 0 to 10, 0 is no effect, 10 is complete control
[12] = Rate 500 g/ha, Pre-emergence section of Table B, 0 to 10 scale (0 no effect, 10 complete control)

SMILES: CC[C@@H](C)n1c(=O)on(C(=O)N(c2ccc(Cl)cc2)C(C)C)c1=O [Compound 665]
- Bedstraw plant response rating (bedstraw): 0
- Plant response rating, Blackgrass (blackgrass; [1]): 3
- Blackgrass plant response rating (blackgrass; [2]): 7
- Blackgrass plant response rating (blackgrass; [3]): 8
- Blackgrass plant response rating (blackgrass; [4]): 5
- Blackgrass plant response rating (blackgrass; [5]): 7
- Plant response rating, Blackgrass (blackgrass; [6]): 8
- Plant response rating, Blackgrass (blackgrass; [7]): 9
- Blackgrass plant response rating (blackgrass; [8]): 8
- Plant response rating, B. signalgrass (surinam grass; [1]): 0
- Plant response rating, B. signalgrass (surinam grass; [2]): 0
- B. signalgrass plant response rating (surinam grass; [3]): 1
- B. signalgrass plant response rating (surinam grass; [4]): 1
- B. signalgrass plant response rating (surinam grass; [5]): 4
- Plant response rating, B. signalgrass (surinam grass; [6]): 8
- Plant response rating, B. signalgrass (surinam grass; [7]): 8
- B. signalgrass plant response rating (surinam grass; [8]): 5
- Plant response rating, Cocklebur (cocklebur; [1]): 0
- Cocklebur plant response rating (cocklebur; [2]): 0
- Cocklebur plant response rating (cocklebur; [3]): 0
- Cocklebur plant response rating (cocklebur; [4]): 0
- Cocklebur plant response rating (cocklebur; [5]): 0
- Plant response rating, Cocklebur (cocklebur; [6]): 0
- Plant response rating, Cocklebur (cocklebur; [7]): 0
- Cocklebur plant response rating (cocklebur; [8]): 2
- Plant response rating, Corn (corn; [1]): 0
- Corn plant response rating (corn; [2]): 0
- Corn plant response rating (corn; [3]): 0
- Corn plant response rating (corn; [4]): 0
- Corn plant response rating (corn; [5]): 0
- Plant response rating, Corn (corn; [6]): 0
- Plant response rating, Corn (corn; [7]): 3
- Corn plant response rating (corn; [8]): 3
- Plant response rating, Crabgrass (crabgrass; [1]): 1
- Crabgrass plant response rating (crabgrass; [2]): 7
- Crabgrass plant response rating (crabgrass; [3]): 9
- Crabgrass plant response rating (crabgrass; [4]): 6
- Crabgrass plant response rating (crabgrass; [5]): 8
- Plant response rating, Crabgrass (crabgrass; [6]): 9
- Plant response rating, Crabgrass (crabgrass; [7]): 10
- Crabgrass plant response rating (crabgrass; [8]): 9
- Plant response rating, Giant foxtail (giant foxtail; [1]): 2
- Giant foxtail plant response rating (giant foxtail; [2]): 4
- Giant foxtail plant response rating (giant foxtail; [3]): 8
- Giant foxtail plant response rating (giant foxtail; [4]): 9
- Giant foxtail plant response rating (giant foxtail; [5]): 10
- Plant response rating, Giant foxtail (giant foxtail; [6]): 10
- Plant response rating, Giant foxtail (giant foxtail; [7]): 10
- Giant foxtail plant response rating (giant foxtail; [8]): 9
- Plant response rating, Morningglory (morningglory; [1]): 4
- Morningglory plant response rating (morningglory; [2]): 6
- Morningglory plant response rating (morningglory; [3]): 6
- Morningglory plant response rating (morningglory; [4]): 0
- Morningglory plant response rating (morningglory; [5]): 0
- Plant response rating, Morningglory (morningglory; [6]): 0
- Plant response rating, Morningglory (morningglory; [7]): 4
- Morningglory plant response rating (morningglory; [8]): 8
- Plant response rating, Redroot pigweed (pigweed; [1]): 3
- Redroot pigweed plant response rating (pigweed; [2]): 3
- Redroot pigweed plant response rating (pigweed; [4]): 7
- Redroot pigweed plant response rating (pigweed; [5]): 8
- Plant response rating, Redroot pigweed (pigweed; [6]): 9
- Plant response rating, Redroot pigweed (pigweed; [7]): 10
- Redroot pigweed plant response rating (pigweed; [8]): 7
- Plant response rating, Rape (rape; [1]): 0
- Rape plant response rating (rape; [2]): 0
- Rape plant response rating (rape; [4]): 4
- Rape plant response rating (rape; [5]): 6
- Plant response rating, Rape (rape; [6]): 8
- Plant response rating, Rape (rape; [7]): 9
- Rape plant response rating (rape; [8]): 4
- Plant response rating, Soybean (soybean; [1]): 2
- Soybean plant response rating (soybean; [2]): 2
- Soybean plant response rating (soybean; [4]): 0
- Soybean plant response rating (soybean; [5]): 0
- Plant response rating, Soybean (soybean; [6]): 0
- Plant response rating, Soybean (soybean; [7]): 2
- Plant response rating, Sugarbeets (sugar beet; [1]): 0
- Sugarbeets plant response rating (sugar beet; [2]): 0
- Sugarbeets plant response rating (sugar beet; [4]): 0
- Sugarbeets plant response rating (sugar beet; [5]): 3
- Plant response rating, Sugarbeets (sugar beet; [6]): 6
- Plant response rating, Sugarbeets (sugar beet; [7]): 7
- Sugarbeets plant response rating (sugar beet; [8]): 4
- Plant response rating, Velvetleaf (velvetleaf; [1]): 0
- Velvetleaf plant response rating (velvetleaf; [2]): 2
- Velvetleaf plant response rating (velvetleaf; [4]): 0
- Velvetleaf plant response rating (velvetleaf; [5]): 0
- Plant response rating, Velvetleaf (velvetleaf; [6]): 4
- Plant response rating, Velvetleaf (velvetleaf; [7]): 7
- Velvetleaf plant response rating (velvetleaf; [8]): 7
- Plant response rating, Wheat (wheat; [1]): 0
- Wheat plant response rating (wheat; [2]): 0
- Wheat plant response rating (wheat; [4]): 0
- Wheat plant response rating (wheat; [5]): 3
- Plant response rating, Wheat (wheat; [6]): 4
- Plant response rating, Wheat (wheat; [7]): 4
- Wheat plant response rating (wheat; [8]): 4
- Plant response rating, Wild oats (wild oat; [1]): 0
- Wild oats plant response rating (wild oat; [2]): 0
- Wild oats plant response rating (wild oat; [4]): 3
- Wild oats plant response rating (wild oat; [5]): 5
- Plant response rating, Wild oats (wild oat; [6]): 7
- Plant response rating, Wild oats (wild oat; [7]): 8
- Wild oats plant response rating (wild oat; [8]): 5
- Nutsedge plant response rating (purple nutsedge; [2]): 0
- Nutsedge plant response rating (purple nutsedge; [4]): 0
- Nutsedge plant response rating (purple nutsedge; [5]): 0
- Plant response rating, Nutsedge (purple nutsedge; [6]): 0
- Nutsedge plant response rating (purple nutsedge; [8]): 0
- Plant response rating, Rice (0 to 10 scale, 0 is no effect, 10 is complete control) (rice; [9]): 0
- Rice plant response rating (0 to 10 scale, 0 is no effect, 10 is complete control) (rice; [10]): 0
- Rice plant response rating (rice; [11]): 0
- Rice plant response rating (rice; [12]): 0
- Plant response rating, S. Flatsedge (0 to 10 scale, 0 is no effect, 10 is complete control) (smallflower flatsedge; [9]): 0
- S. Flatsedge plant response rating (0 to 10 scale, 0 is no effect, 10 is complete control) (smallflower flatsedge; [10]): 0
- S. Flatsedge plant response rating (smallflower flatsedge; [11]): 0
- S. Flatsedge plant response rating (smallflower flatsedge; [12]): 0
- Plant response rating, Ducksalad (0 to 10 scale, 0 is no effect, 10 is complete control) (duck salad; [9]): 0
- Ducksalad plant response rating (0 to 10 scale, 0 is no effect, 10 is complete control) (duck salad; [10]): 0
- Ducksalad plant response rating (duck salad; [11]): 0
- Ducksalad plant response rating (duck salad; [12]): 0
- Plant response rating, Barnyardgrass (0 to 10 scale, 0 is no effect, 10 is complete control) (bamyardgrass; [9]): 0
- Barnyardgrass plant response rating (0 to 10 scale, 0 is no effect, 10 is complete control) (bamyardgrass; [10]): 0
- Barnyardgrass plant response rating (bamyardgrass; [11]): 2
- Barnyardgrass plant response rating (bamyardgrass; [12]): 6
